Measured values reported in the supplement of paper PMC10949913.

Tests used:
Assay in all cases: area under concentration-response curve (viability) (AUC (a.u.)); higher = less active
Details in all cases: 48 h
[1] = system: CU-ACC1
Outline: (§1)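 Three adrenocortical carcinoma cell lines were plated in 1,536-well plates at 500–1,000 cells/well in 5 µL medium, and 23 nL of each library compound was added at 11 concentrations. After 48 h, CellTiter-Glo was applied for 15 minutes at room temperature before luminescence was read. Each plate's signals were normalised to vehicle and empty-well controls. AC50 and area under the curve were taken from fitted concentration-response curves, with only inhibitory or non-responding curve classes retained.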

[2] = system: CU-ACC2
Outline: as §1

[3] = system: NCI-H295R
Outline: as §1

SMILES	area under concentration-response curve [1]	area under concentration-response curve [2]	area under concentration-response curve [3]
CCOc1ccccc1N/N=C1/C(=O)N(c2nc(-c3ccccc3)cs2)N=C1C	569	639	570
Cc1[nH]c(/C=C2\C(=O)Nc3ccc(F)cc32)c(C)c1C(=O)NC[C@H](O)CN1CCOCC1	525	601	539
CSCC[C@@H](NC(=O)[C@@H](Cc1ccccc1)NC(=O)CNC(=O)CNC(=O)[C@@H](N)Cc1ccc(O)cc1)C(=O)O	535	616	566
CC1=C(C)C=C(N[S+]([O-])(=O)C2=CC3=C(NC(C4C\C=C/C34)C5=CC=C(C=C5)C(O)=O)C=C2)C=C1 (centres undefined)	525	600	555
Cc1noc(C)c1-c1ccc(-c2cc(C(N)=O)c(NC(N)=O)s2)c(O[C@H]2CCNC2)c1	456	471	447
Cc1ccc([S+](=O)([O-])NC(=O)NN2CC3CCCC3C2)cc1 (centres undefined)	537	629	579
N=C1S/C(=C\c2ccc(-c3ccc4c(c3)C(=O)NC4=O)o2)C(=O)N1c1ccc(Br)cc1	563	675	618
CC[C@H](CC[C@@H](C)[C@H]1CC[C@H]2[C@@H]3C\C=C/4C[C@@H](O)CC[C@]4(C)[C@H]3CC[C@]12C)C(C)C	413	396	421
CC(=O)N1CCN(c2ccc(NC(=O)Cc3cnc(-c4ccnc(F)c4)c(C)c3)nc2)CC1	550	643	582
OC1=CC2=C(C(=O)\C=C(/O2)C3=CC=CC=C3)C(=C1O)O	458	462	489
O=C(O)C1CCCN(CCC=C(c2ccccc2)c2ccccc2)C1 (centres undefined)	540	520	539
COC(=O)[C@H](c1ccccc1Cl)N1CCc2sccc2C1	510	551	521
C[C@@H]1C(=O)OC2[C@H](O)[C@]34[C@H]5C[C@@H](C(C)(C)C)[C@]36[C@@H](OC(=O)[C@@H]6O)O[C@@]4(C(=O)O5)[C@]21O (some centres undefined)	463	556	532
Cc1nnc(C(C)C)n1C1CC2CCC(C1)N2CC[C@H](NC(=O)C1CCC(F)(F)CC1)c1ccccc1 (some centres undefined)	561	533	559
CC(C)(C#N)c1cc(Cn2cncn2)cc(C(C)(C)C#N)c1	461	574	537
COC1=C(OCCCOC2=C(OC)C=C3C(=O)N4CC(=C)C[C@H]4\C=N/C3=C2)C=C5\N=C/[C@@H]6CC(=C)CN6C(=O)C5=C1	320	404	444
OCCn1cc(-c2cnc3nnn(Cc4ccc5ncccc5c4)c3n2)cn1	497	600	543
Nc1cccc2c1CN([C@H]1CCC(=O)NC1=O)C2=O	454	544	498
Clc1ccccc1C(c1ccccc1)(c1ccccc1)n1cccn1	496	489	520
CC[C@H](NC(=O)[C@H](C[S+](=O)([O-])CC1CC1)N[C@@H](c1ccc(F)cc1)C(F)(F)F)C(=O)C(=O)NC1CC1	534	510	538
COC1=CC=C2/C3=N/CCN3\C(=N/C2=C1OC)NC(=O)C4=CC=CN=C4	662	698	619
CC/1=C(/C(CC(=O)N1)C2=CC=C(C=C2)C(F)(F)F)C(=O)NC3=C(F)C=C4[NH]N=CC4=C3 (centres undefined)	477	560	557
C[N]1C=C(C2=CC=CC=C12)/C3=C(/C(=O)NC3=O)C4=C[N](C)C5=CC(=CC=C45)[N+]([O-])=O	611	608	454
